From patent publication US10609906B2, “Apparatus and method of using a simulated skin substrate for testing insect repellants” (S. C. JOHNSON & SON, INC., priority 2016, dated 2020)
One block for each compound: values may come before it.

What was measured:
[1] = surface wetting of insect repellent actives on hydrated skin substitute substrate; assay type: physicochemical; conditions: for surface wetting on skin substitute substrate: ethanol solutions containing 5%, 10%, 15%, and 25% of the active; for surface wetting on hydrated skin substitute substrate: insect repellant active as such
Source text: Additionally, the surface wetting of insect repellents on the skin substitute substrate should be close to the surface wetting of insect repellents on human skin. The term “wetting” refers to the ease with which a substance can intimately contact and spread over a given substrate. There are a variety of forces (ionic, static, polar, van der Waals etc.) acting between the substance and the substrates that ensure good bonding. Good wetting provides a larger area of contact where these forces may act. Consequently, good wetting is crucial for good bond formation. […] Complete wetting is achieved when the contact angle between the liquid and the solid surface is approaching or is substantially zero. […] The interaction of ethanol solutions containing 5%, 10%, 15%, and 25% of each aforementioned active substance and the tested skin substitute substrate was also tested. […] Due to this degree of wetting between the insect repellent active and the tested skin substitute substrate, the desired bonding between the active and the tested skin substitute substrate is achieved. As a result, the insect repellent remains on the skin substitute substrate for a duration similar to that of human skin.

wild mosquitoes = assay: portable human surrogate apparatus 200, outdoor field test, complete protection time; assay type: in vivo; conditions: for CPT data with human surrogate apparatus 200 compared with voluntary human subjects group: outdoor field test
Experimental: The human surrogate apparatus of FIG. 1 is intended for use in a laboratory or controlled environment. Preferably, the controlled environment has a temperature range of between about 24° C. to about 30° C. and a range of relative humidity of between about 40% to about 60%. In contrast, FIGS. 2 and 3 illustrate an embodiment of a human surrogate apparatus 200 for testing the efficacy of a skin-applied insect repellent in the field. By fashioning the human surrogate apparatus 200 to be portable, the apparatus may be used in any number of real world environments. The human surrogate apparatus 200 therefore provides the advantage of similar testing efficacy as human testing, but without exposure to mosquitoes or other insects found in the field.
With reference still to FIGS. 2 and 3, the human surrogate apparatus 200 is disposed in an outdoor environment, with an identified population of biting insects. The portable human surrogate apparatus 200 is provided with a housing 202 having a power supply line 204 connected thereto. In some embodiments, a power supply 206 is located remotely from the housing 202 to provide power to the human surrogate apparatus 200. Alternatively, or in addition, a local power supply is provided within or attached to the housing 202. In such an embodiment, the power supply line 204 may be omitted, provided within the housing 202, or otherwise fashioned differently within the housing 202 to allow energy to reach electrical components thereof
With reference to FIG. 3, the human surrogate apparatus 200 includes a heater 208 in electrical communication with the power supply 206. In the present embodiment, the heater 208 is a silicone-rubber heating blanket, manufactured by BriskHeat Corporation, Columbus, OH. A non-collagen based, non-biological substrate 210 is also provided and is exposed to the ambient environment. In certain embodiments the non-collagen based, non-biological substrate 210 may be synthetic.
In the present embodiment, the substrate 210 is securely fastened to the portable human surrogate apparatus 200 by magnetic strips 212, or may be fastened by any other suitable means. In some embodiments a temperature buffering device 214 is provided beneath the substrate 210, which assists in transmitting heat from the heater 208 and maintains the substrate 210 at a predetermined temperature. In the present embodiment, the temperature buffering device 214 is a water bath, enclosed in a container 220, which is made of materials that prevent water leakage and that transmit heat at the same time. Moreover, the portable human surrogate apparatus 200 is connected to a CO2 source 216, which may be remote from the housing 202, attached to the housing 202, or otherwise retained within the housing 202. In the present embodiment, the CO2 source 216 delivers CO2 at a rate of between about 400 mL/min (14 oz/min) to about 600 mL/min (20.3 oz/min).
It has also been experimentally determined that the human surrogate apparatuses described herein perform consistently in a controlled environment, e.g., a laboratory with predetermined and controllable conditions, and in an uncontrolled environment, e.g., in an outdoor field test. With reference to FIG. 8 and Table 3, the CPT in hours obtained from testing 7% weight percentage DEET repellent efficacy in the laboratory and obtained from the field is similar.
Similarly, for testing substance picaridin (referring to FIGS. 11A-11C) and PMD (referring to FIGS. 12A-12C), the CPT data (including average CPT) in the human surrogate apparatus 200 group shares overlapping confidence intervals with the CPT data in the field test group using the voluntary human subjects.

adult female mosquitoes = assay: human surrogate apparatus 100 (Vitro-Skin skin substitute substrate), laboratory, complete protection time; assay type: in vivo, Aedes aegypti; conditions: for CPT data with human surrogate apparatus 100 compared with arm-in-cage group: 10% by weight, laboratory; for Predicted percent DEET concentration (±SE): inverse prediction from model
Source text: With reference to FIG. 4, a method of using the human surrogate apparatus 100 is explained.
In certain embodiments, different test substances contain different concentrations of testing insect repellent. The concentration of testing insect repellent can be measured by weight percentage or by volume percentage of the testing insect repellent diluted in ethanol or in any other suitable diluents. […] Further, in the present embodiment, regardless of the concentration of the repellent, the combined mass of the repellent and ethanol is about 0.19 g. In other experiments, the combined mass of the repellent(s) and the diluent(s) is greater or less than about 0.19 g, but similarly stays the same independent of the concentration of the repellent. With different sets of experiments, the amount of skin-applied test substance used in the testing is based on the size of the substrate and the properties of different testing insect repellents, such as the active ingredient dosage.
This cycle of exposure-withdrawal-exposure is repeated until one or more biting insects land on the treated substrate for equal to or longer than 2 seconds.

mosquitoes [2] = assay: arm-in-cage method with human research participants, laboratory, complete protection time; assay type: in vivo; conditions: inverse prediction from model
mosquitoes [3] = assay: as above; assay type: in vivo
Source text: When comparing the CPT data of skin-applied insect repellents, such as DEET, using the human surrogate apparatus 100 to the CPT data of skin-applied insect repellents obtained using human research participants via the arm-in-cage method (See Product Performance Test Guidelines OPPTS 810.3700: Insect Repellents to be Applied to Human Skin, United States Environmental Protection Agency, EPA 712-10-001, Jul. 7, 2010), data from both groups is very similar to each other as may be seen with reference to FIG. 5 in a controlled environment, e.g., a laboratory. Further, Table 1 illustrates the average CPT for the two methods based on differing weight percentages of the active ingredient DEET of the insect repellent, as well as the […] (“±SE”) at each weight percentage for the two groups. As may be seen, the differences between the experiments using human research participants via the arm-in-cage method and the experiments using the human surrogate apparatus 100 are statistically negligible.

[4] = 7% DEET in EtOH, Field, human surrogate apparatus
[5] = 7% DEET in EtOH, Lab, human surrogate apparatus
[6] = 7% DEET in ethanol, Human Skin Surrogate
[7] = 15% DEET in ethanol, Human Skin Surrogate
[8] = 20% DEET in ethanol, Human Skin Surrogate
[9] = 25% DEET in ethanol, Human Skin Surrogate
[10] = 30% DEET in ethanol, Human Skin Surrogate

Structure (SMILES): CCC(C)OC(=O)N1CCCCC1CCO (stereo not shown) [picaridin, 2-(2-hydroxyethyl)-1-piperidinecarboxylic acid 1-methylpropyl ester]
surface wetting on skin substitute substrate [1]: substantially complete wetting
surface wetting on hydrated skin substitute substrate [1]: substantially complete wetting
CPT data with human surrogate apparatus 200 compared with voluntary human subjects group (wild mosquitoes): No statistically significant difference
CPT data with human surrogate apparatus 100 compared with arm-in-cage group (adult female mosquitoes): within the range of CPT data points of the group employing the arm-in-cage method

surface wetting on skin substitute substrate [1]: substantially complete wetting
surface wetting on hydrated skin substitute substrate [1]: substantially complete wetting
Structure (SMILES): CC1CCC(C(C)(C)O)C(O)C1 (stereo not shown) [PMD, para-menthane-3,8-diol]
CPT data with human surrogate apparatus 200 compared with voluntary human subjects group (wild mosquitoes): No statistically significant difference
CPT data with human surrogate apparatus 100 compared with arm-in-cage group (adult female mosquitoes): not significantly different

surface wetting on skin substitute substrate [1]: substantially complete wetting
surface wetting on hydrated skin substitute substrate [1]: substantially complete wetting
Structure (SMILES): CCN(CC)C(=O)c1cccc(C)c1 [DEET, N,N-Diethyl-3-methylbenzamide]
Complete protection time (median) (wild mosquitoes; [4]): 2.0 h
Complete protection time Mean ± SE (wild mosquitoes; [4]): 2.0 ± 0.4 h
Complete protection time Range (wild mosquitoes; [4]): 1.5 to 2.5 h
CPT data with human surrogate apparatus 200 compared with voluntary human subjects group (wild mosquitoes): not significantly different
Predicted percent DEET concentration (±SE) (mosquitoes [2]; for complete protection time 1 h): 1.61 ± 1.69%
Predicted percent DEET concentration (±SE) (mosquitoes [2]; for complete protection time 2 h): 6.15 ± 0.94%
Predicted percent DEET concentration (±SE) (mosquitoes [2]; for complete protection time 3 h): 10.07 ± 0.88%
Predicted percent DEET concentration (±SE) (mosquitoes [2]; for complete protection time 4 h): 14.08 ± 1.15%
Predicted percent DEET concentration (±SE) (mosquitoes [2]; for complete protection time 5 h): 18.70 ± 1.46%
Predicted percent DEET concentration (±SE) (mosquitoes [2]; for complete protection time 6 h): 24.85 ± 2.64%
Complete protection time (median) (adult female mosquitoes; [5]): 2.0 h
Complete protection time Mean ± SE (adult female mosquitoes; [5]): 2.2 ± 0.9 h
Complete protection time Range (adult female mosquitoes; [5]): 1.0 to 3.5 h
Complete protection time (median) (adult female mosquitoes; [6]): 2.0 h
Complete protection time Mean ± SE (adult female mosquitoes; [6]): 2.2 ± 0.9 h
Complete protection time (median) (adult female mosquitoes; [7]): 3.3 h
Complete protection time Mean ± SE (adult female mosquitoes; [7]): 3.6 ± 1.0 h
Complete protection time (median) (adult female mosquitoes; [8]): 5.3 h
Complete protection time Mean ± SE (adult female mosquitoes; [8]): 4.9 ± 2.1 h
Complete protection time (median) (adult female mosquitoes; [9]): 6.5 h
Complete protection time Mean ± SE (adult female mosquitoes; [9]): 6.3 ± 1.1 h
Complete protection time (median) (adult female mosquitoes; [10]): 7.0 h
Complete protection time Mean ± SE (adult female mosquitoes; [10]): 6.5 ± 2.3 h
Predicted percent DEET concentration (±SE) (adult female mosquitoes; for complete protection time 1 h, Human Skin Surrogate): 3.81 ± 1.72%
Predicted percent DEET concentration (±SE) (adult female mosquitoes; for complete protection time 2 h, Human Skin Surrogate): 8.17 ± 1.16%
Predicted percent DEET concentration (±SE) (adult female mosquitoes; for complete protection time 3 h, Human Skin Surrogate): 11.92 ± 1.04%
Predicted percent DEET concentration (±SE) (adult female mosquitoes; for complete protection time 4 h, Human Skin Surrogate): 15.71 ± 1.13%
Predicted percent DEET concentration (±SE) (adult female mosquitoes; for complete protection time 5 h, Human Skin Surrogate): 20.00 ± 1.21%
Predicted percent DEET concentration (±SE) (adult female mosquitoes; for complete protection time 6 h, Human Skin Surrogate): 25.55 ± 1.58%
Complete protection time (median) (mosquitoes [3]; 7% DEET in ethanol): 2.3 h
Complete protection time Mean ± SE (mosquitoes [3]; 7% DEET in ethanol): 2.5 ± 0.7 h
Complete protection time (median) (mosquitoes [3]; 15% DEET in ethanol): 3.5 h
Complete protection time Mean ± SE (mosquitoes [3]; 15% DEET in ethanol): 3.9 ± 1.5 h
Complete protection time (median) (mosquitoes [3]; 20% DEET in ethanol): 3.8 h
Complete protection time Mean ± SE (mosquitoes [3]; 20% DEET in ethanol): 4.9 ± 2.1 h
Complete protection time (median) (mosquitoes [3]; 25% DEET in ethanol): 6.8 h
Complete protection time Mean ± SE (mosquitoes [3]; 25% DEET in ethanol): 6.5 ± 1.4 h
Complete protection time (median) (mosquitoes [3]; 30% DEET in ethanol): 6.6 h
Complete protection time Mean ± SE (mosquitoes [3]; 30% DEET in ethanol): 6.6 ± 0.7 h
